Source: patent publication US20240335404A1, “SUBSTITUTED ESTERS CONTAINING POLYOLS AND SACCHARIDES FOR TREATING HEPATOTOXICITY AND FATTY LIVER DISEASES” (SINEW PHARMA INC., priority 2015, published 2024)

Columns and labels:
[1] = Pro-drug hydrolysis in fresh human whole-blood (in vitro); assay type: in vitro ADME; settings: 37° C., up to 24 hrs (FIG. 1)
Experimental: Fresh human whole-blood were used for drug hydrolysis studies. Drug (10 mg, compound F) was dissolved in 1 mL solution (20% methanol). Drug hydrolysis (n=3) was performed in 20 mL of fresh whole-blood aliquots containing 1.0 mg of drug in a 50-mL flask thermostat at 37° C. in a shaking water bath. At time 0, the drug was added, and after various times of incubation, the blood samples were collected at […], 0.75, 1, 2, 4, 6, 12 and 24 hrs. Blood sample were used 1 mL acetonitrile to quench the enzymatic hydrolysis of the drug as samples were obtained. […] The ESI interface was used in the negative-ion mode.
The pro-drug was monitored at a transition of m/z 688.9∂→180.9, Sucralose was monitored at a transition of m/z 395→359; mannitol was monitored at a transition of m/z 452.3→273.3; C6-mannitol was monitored at a transition of m/z 309→101.1. All the compounds were identified by high-resolution mass spectrophotometry and ^13C NMR. The structure of C6-mannitol (formula (2)) is as follows: […]
The hydrolysis of pro-drug in blood was expressed by plotting the percentage of Pro-drug remaining and the percentage of sucralose, mannitol and C6-mannitol increasing versus time after incubation of the pro-drug in blood (FIG. 1).

CYP2E1 = CYP2E1 (Homo sapiens, UniProt P05181); assay: CYP2E1 inhibitory activity assay in human liver microsomes (CZX to 6-OH-CZX)
CYP2E1, sequence (P05181 whole entry): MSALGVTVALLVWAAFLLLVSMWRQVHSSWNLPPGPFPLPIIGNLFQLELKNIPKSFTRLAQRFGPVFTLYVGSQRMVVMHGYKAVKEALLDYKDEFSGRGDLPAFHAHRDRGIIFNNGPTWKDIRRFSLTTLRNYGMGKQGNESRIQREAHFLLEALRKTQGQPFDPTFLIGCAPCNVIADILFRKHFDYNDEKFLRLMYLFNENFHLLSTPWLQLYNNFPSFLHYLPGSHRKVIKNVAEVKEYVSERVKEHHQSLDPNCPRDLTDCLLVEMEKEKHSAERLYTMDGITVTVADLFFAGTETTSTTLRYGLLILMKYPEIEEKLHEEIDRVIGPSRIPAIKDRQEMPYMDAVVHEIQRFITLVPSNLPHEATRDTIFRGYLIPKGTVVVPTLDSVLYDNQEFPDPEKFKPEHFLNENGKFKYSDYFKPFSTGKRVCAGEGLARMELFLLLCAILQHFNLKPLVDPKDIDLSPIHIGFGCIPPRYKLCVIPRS
Experimental: After addition of the test sample, the amount of CYP450 isozyme metabolite standard 6-OH-CZX (6-Hydroxy-Chlorzoxazone) is specific used for calculation of the CYP450 isozyme (CYP2E1) inhibition ratio of the test sample by using the amount of 6-OH-CZX of the control group as the baseline.
All samples were tested in triplicate. To determine the percentage inhibition, each test compound was dissolved in 1, 2, 4 μg/mL to three different concentrations. The CYP2E1 activity levels in the presence of the test compounds were compared with the control incubations. The 500-μL reaction mixture, containing 0.5 mg of microsomal protein, was incubated with 320 μM CZX in the presence of 5 mM MgCl2 and 1 mM NADPH in 50 mM phosphate buffer with pH 7.4 at 37° C. for 30 min. The reaction was terminated by ice-cold acetonitrile, and then 4-hydroxyl tolbutamide was added as an internal standard. The organic phase was evaporated to dryness and reconstituted into the mobile phase (methanol:water=1:1) prior to liquid chromatography-tandem mass spectrometry (LC-MS/MS) analysis. An API 3000 triple-quadrupole mass spectrometer equipped with an ion-spray (ESI) source was used to determine 6-OH-CZX in the human liver microsomes. The ESI interface was used in the positive-ion mode. The 6-OH-CZX was monitored at a transition of m/z 284.5→185.9.
The CYP450 isozyme activity levels in the presence of the test compounds were compared with the control incubations.

P450 2E1 inhibitor activity (CYP2E1): effective as P450 2E1 inhibitors
CYP 2E1 inhibition ratio (%) (CYP2E1; 1 μg/mL): 17.7 ± 0.7%
CYP 2E1 inhibition ratio (%) (CYP2E1; 2 μg/mL): 33.3 ± 4.1%
CYP 2E1 inhibition ratio (%) (CYP2E1; 4 μg/mL): 45.7 ± 2.5%
Structure (SMILES): O=C(CCCCC(=O)OC[C@@H](O)[C@@H](O)[C@H](O)[C@H](O)CO)OCC1O[C@H](O[C@]2(CCl)OC(CCl)C(O)C2O)C(O)C(O)[C@H]1Cl (stereo in doubt) [Compound F, ((2R,3R,4R,5R,6R)-6-(((2R,5R)-2,5-bis(chloromethyl)-3,4-dihydroxytetrahydrofuran-2-yl)oxy)-3-chloro-4,5-dihydroxytetrahydro-2H-pyran-2-yl)methyl ((2R,3R,4R)-2,3,4,5,6-pentahydroxyhexyl) adipate]
percentage of pro-drug remaining and metabolites formed in blood [1]: turns into its metabolites including sucralose, mannitol and C6-mannitol
